US9422292B2, “Bromodomain inhibitors and uses thereof” (Constellation Pharmaceuticals, Inc., priority 2011, dated 2016)

Experiments:
BRD4 (BD1) = biological target: T1, BRD4 (BD1) (Homo sapiens, UniProt O60885); assay: BRD4 AlphaLisa binding assay; details: BRD4 (BD1) 30 nM, biotinylated H4-tetraacetyl peptide 200 nM; read-out: BRD4 AlphaLisa
T1 construct: His; made in house
In short: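 BRD4 (BD1) (30 nM final) with peptide (200 nM final) in 40 mM HEPES pH 7.0, 40 mM NaCl, 1 mM DTT, 0.01% BSA, 0.008% Brij-35, 1.2% DMSO, 20 min at RT with compound.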

[1] = tested on: IL-6 secretion in THP-1 cells; assay: Cell-based IL-6 quantification assay (ELISA, Mesoscale) in LPS-treated THP-1 cells; details: Homo sapiens, LPS 4 μg/mL, 16 h, ELISA value/CellTiter-Glo ratio
In short: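 THP-1 cells (100,000/well, RPMI-10% FBS) stimulated with 4 μg/mL LPS and incubated 16 h with compound at various concentrations. Supernatant IL-6 measured by Mesoscale ELISA, normalized to CellTiter-Glo cell content; % inhibition of secretion from the ratio.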

[2] = tested on: MYC mRNA in MV4:11 (AML) cells; assay: cMyc RNA quantification assay (QuantiGene) in MV4:11 cells; type: cell-based; details: Homo sapiens, 4 h, QuantiGene 2.0
In short: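 Cells exposed to a range of compound concentrations for 4 h, then MYC mRNA quantified by QuantiGene 2.0 branched-DNA assay. Biological duplicates averaged and normalized to DMSO vehicle, expressed as percent MYC mRNA.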

Structure (SMILES)	IC50 (BRD4 (BD1))	IC50 [1]	IC50 [2]
Cc1nnc2n1-c1ccc(-c3cn(C)nn3)cc1N(c1ccc(Cl)cc1)C[C@H]2C [Compound 64, 4H-[1,2,4]Triazolo[4,3-a][1,5]benzodiazepine, 5,6-dihydro-1,4-dimethyl-8-(1-methyl-2H-1,2,3-triazole-4-yl)-6-(4-chloro-phenyl)]	< 100 nM	< 100 nM	< 100 nM
Cc1nnc2n1-c1c(F)cccc1N(c1ccc(Cl)cc1)CC2 [Compound 17, 6-(4-chlorophenyl)−10-fluoro-1-methyl-5,6-dihydro-4H-benzo[b][1,2,4]triazolo[4,3-d][1,4]diazepine]	1000 to 10000 nM	> 1000 nM	1000 to 10000 nM
Cc1nnc2n1-c1ccc(-c3ccc(N)nc3)cc1N(c1ccc(N)nc1)C[C@H]2C [Compound 71, (R)-5,5′-(1,4-dimethyl-4H-benzo[b][1,2,4]triazolo[4,3-d][1,4]diazepine-6,8(5H)-diyl)dipyridin-2-amine]	< 100 nM	1000 to 10000 nM	1000 to 10000 nM

The remaining lines, values ahead:

IC50 (BRD4 (BD1))	IC50 [1]	IC50 [2]	Structure (SMILES)
100 to 1000 nM	1000 to 10000 nM	1000 to 10000 nM	Cc1nnc2n1-c1ccc(-c3ccc(N)nc3)cc1N(c1ccc(C(N)=O)cc1)CC2C (stereo in doubt) [Compound 69, (R)-4-(8-(6-aminopyridin-3-yl)-1,4-dimethyl-4H-benzo[b][1,2,4]triazolo[4,3-d][1,4]diazepin-6(5H)-yl)benzamide]
< 100 nM	< 100 nM	< 100 nM	Cc1nnc2n1-c1ccc(-c3ccc(N)nc3)cc1N(c1ccc(Cl)cc1)CC2C (stereo not drawn) [Compound 23, 4H-[1,2,4]triazolo[4,3-a][1,5]benzodiazepine,5,6-dihydro-1,4-dimethyl-8-(6-aminopyridin-3-yl)-6-(4-chloro-phenyl)]
< 100 nM	> 1000 nM	1000 to 10000 nM	Cc1nnc2n1-c1ccc(-c3cnn(CC(N)=O)c3)cc1N(c1ccc(C#N)cc1)C[C@H]2C [Compound 81, (R)-2-(4-(6-(4-cyanophenyl)-1,4-dimethyl-5,6-dihydro-4H-benzo[b][1,2,4]triazolo[4,3-d][1,4]diazepin-8-yl)-1H-pyrazol-1-yl)acetamide]
100 to 1000 nM	> 1000 nM	1000 to 10000 nM	Cc1nnc2n1-c1ccc(-c3cnc(N)cn3)cc1N(c1ccc(C#N)cc1)C[C@@H]2C [Compound 63]
